Assay results taken from patent US11020337B2, “Aspartyl-dipeptides for skin care and cosmetic use” (Cysal GmbH, priority 2016, dated 2021).

Columns and labels:
[1] = system: basal keratinocytes of 3D-Epidermal skin models; experiment: Click-iT EdU proliferation rate of basal keratinocytes; assay type: cell-based, human; conditions: topical, 30 μl of 5% aqueous solution
Procedure: (§1) Experimental application of test-products: In this study 30 μl of a 5% aqueous solution of the test substances were applied as follows using a calibrated pipette:
Proliferation testing of basal Keratinocytes (Example 2): topically with air exposed models as reference and analysis time points for proliferation rate after 3 and 6 days.
(§2) Application was done in duplicates (2 models) at all time points and models were cultured and analyzed in parallel under identical conditions.
EpiDerm 3D-Epidermal skin models: Nowadays in vitro test procedures are a very good alternative to animal experiments and become increasingly important for the cosmetic industry. For cosmetic products which are used over a longer period, dermatological tests for harmlessness are an essential prerequisite for a high application safety and customer satisfaction. During the development of new cosmetic products biological effects of particular active ingredients or complete formulations turn into focus of cosmetic interests. The human EpiDerm skin model is an in vitro reconstructed multilayered epithelial tissue which is cultured of normal human keratinocytes. […] The model is mitotically as well as metabolically active and expresses typical differentiation marker like pro-fillagrin 1 and cytokeratin 1/10. […]
Evaluation of the proliferation rate: Out of every used skin model, 6 mm punch biopsies were taken, embedded in O.C.T.™, cryoconserved in the gaseous phase of liquid nitrogen and subsequently cut into 5-6 μm sections. Nuclei from every section were counted (blue fluorescence, DAPI) and the percentage of proliferating nuclei (red fluorescence) was determined.
Fluorescence microscopy: Click-iT®-EdU tagged cells were stained in red (λex 594 nm). […] Click-iT®-EdU and DAPI stained cells were recorded solely and merged subsequently. The fluorescence analysis and documentation was performed with the ZEISS, Axio Scope A1HAL 100. […]

crow's feet wrinkles = experiment: In-vivo single wrinkle depth (PRIMOS optical 3D measurement); parameters: species or system human; conditions: 5% aqueous solution, four weeks, 5 subjects
Source text: (§3) Panelists: The test panel included 5 adult female volunteers with dry skin, elasticity less than average and crow's feet wrinkles next to the eyes. At the beginning of the application test all subjects have been checked by a dermatologist. Only subjects were allowed to join the trial with no pathological skin modifications diagnosed. During the application test all subjects had in case of acute skin irritations access to daily consultations from an attending medical specialist who was accompanying the test. Daily consultations about the skin conditions through the test-accompanying medical doctor were possible.
Experimental application of test-products: Test areas were around 3 cm in diameter. […]
Single wrinkles depth: Optical 3D measurement using a PRIMOS (Phaseshift Rapid In vivo Measurement Of Skin) compact portable system was used for this measurement. PRIMOS comact portable was applied on an area of 40×30 mm and digital fotos of the measured area were made. […] Finally, the measurement data generated were processed and then evaluated. […] With the PRIMOS software the changes in structure of the epidermis can be classified quantitatively with the aid of various standardized surface measurement parameters in accordance with DIN (Deutsche Industrie Norm, German industrial standards) and ISO (International Standards Organisation). […] The skinfold depth can be measured by determining the distances. […]

[2] = system: EpiDerm 3D-Epidermal skin models (normal human keratinocytes); experiment: MTT-Vitality-Assay, in-vitro epidermal vitality/viability; assay type: cell-based; conditions: 30 μl of 5% aqueous solution once a day
Procedure: as §1, §2
EpiDerm 3D-Epidermal skin models: Nowadays in vitro test procedures are a very good alternative to animal experiments and become increasingly important for the cosmetic industry. For cosmetic products which are used over a longer period, dermatological tests for harmlessness are an essential prerequisite for a high application safety and customer satisfaction. During the development of new cosmetic products biological effects of particular active ingredients or complete formulations turn into focus of cosmetic interests. The human EpiDerm skin model is an in vitro reconstructed multilayered epithelial tissue which is cultured of normal human keratinocytes. […] The model is mitotically as well as metabolically active and expresses typical differentiation marker like pro-fillagrin 1 and cytokeratin 1/10.
This term summarizes all metabolic activities which cells need for their basic requirements as well as for growth and proliferation. An established method to measure vitality of cells and tissues is the MTT-Vitality-Assay. […] The formazan crystals precipitate into the cellular cytosol, whereby the amount of precipitate correlates quantitatively with the general cellular vitality. Therefore the MTT-Assay can be considered as an indicator for the vitality or “Fitness” of a tissue, because cellular processes like respiration and energy extraction lead to the reduction of MTT.
Aim of this experiment was to examine the potential of the test substances to vitalize the tissue. For this purpose 3D-Epidermis skin models were used. […] After incubation period the bottom of model jars were dabbed with a sterile wipe to remove excessive medium/MTT mix. Models were transferred to a new sterile 24 well plate and 2 ml isopropyl was added subsequently. To avoid evaporation, plates were sealed with parafilm, covered with tinfoil and incubated 2 h on a shaker to extract formazan crystals. Optical density of released crystals of all extracts was determined at 570 nm. Measured values were analyzed and assessed. […] The vitality was derived from averages of determined ODs whereby the water treated, optimal cultured control was set as 100% vitality [vitality: 100*(ODtest substance/ODcontrol)].

human skin [3] = experiment: In-vivo skin elasticity test (cutometer MPA 580, R2-values); conditions: 4 weeks; for improvement in skin elasticity, treated area: twice a day
Source text: as §3
(§4) Experimental application of test-products: Test areas were around 3 cm in diameter. The test products were applied on the volar forearm (5% and 10% aqueous solutions; skin elasticity and hydration tests) as well as the crows's feet wrinkles (5% aqueous solution). The application of the preparations have been done twice a day during the whole test period (4 weeks). The subjects have been instructed not to use other care products in this test area. Untreated skin areas were used as control.
Elasticity test: The test was performed with the cutometer MPA 580 Fa. Courage+Khazaka electronics GmbH. The principle of measurement is based on the suction/elongation principle. To obtain start conditions the instrument was adjusted for 450 mbar low pressure. The suction time was defined to 5 secs. The relaxation time (abrupt loss of low pressure) was fixed to 3 secs. All measurements have been repeated three times for each test and control areas. Afterwards a mean for R2-values obtained from three independent measurements per area has been calculated. To perform measurements the instrument was adjusted for the named parameters before the test was started. All parameter adjustments described in literature as mainly used and reliable remained unchanged during the measurements. The cutometry has been performed at the beginning and at the end of the application period. R2-values have been measured and analyzed for each subject.

human skin [4] = experiment: In-vivo skin moisture (Corneometer CM 825); conditions: 4 weeks; for improvement in skin moisture, treated area: twice a day
Source text: as §3, §4
Skin moisture: this aspect was tested using the Corneometer CM 825 (Firma Courage+Khazaka). The test products were applied twice a day on the relevant pre-determined skin areas during the application period. The test persons were acclimatized for 45 minutes at a temperature of 22 degrees centigrade and 60% relative humidity before every measurement, then, the skin measurement values were measured at three different places within the respective testing areas. The recorded values were averaged. Untreated skin close to the test area was used as the control measurement area. Measurements were taken before the application and after four weeks of application. All measurements were performed at least 10-12 hours after the last application of the formerly used product resp. the test product.

[5] = 3 days incubation, air exposed models 11.21%
[6] = crow's feet area, 5% aqueous solution
[7] = volar forearm, 5% aqueous solution
[8] = volar forearm, 10% aqueous solution
[9] = crow's feet (next to the eye), 5% aqueous solution
[10] = crow's feet (next to the eyes), 5% aqueous solution

| Compound | percentage of proliferative cells (nuclei) [1, 5] [%] | average improvement in the wrinkle depth (crow's feet wrinkles) [%] | vitality (MTT, water treated control = 100%) ([2]; 48 h systematical (systemic) incubation, FIG. 1) [%] | vitality (MTT, water treated control = 100%) ([2]; 48 h topical application, FIG. 2) [%] | vitality (MTT, water treated control = 100%) ([2]; 120 h systemical incubation, FIG. 3) [%] | vitality (MTT, water treated control = 100%) ([2]; 120 h topical application, FIG. 4) [%] | average improvement in skin elasticity after control area deduction (human skin [3]; [6]) [%] | average improvement in skin elasticity after control area deduction (human skin [3]; forearm, 5% aqueous solution) [%] | average improvement in skin elasticity after control area deduction (human skin [3]; forearm, 10% aqueous solution) [%] | improvement in skin elasticity, treated area (human skin [3]; [7]) | improvement in skin elasticity, treated area (human skin [3]; [8]) [%] | improvement in skin moisture, treated area (human skin [4]; [9]) | average improvement in skin moisture after control area deduction (human skin [4]; [10]) [%] | average improvement in skin moisture after control area deduction (human skin [4]; [7]) [%] | improvement in skin moisture, treated area (human skin [4]; [7]) | average improvement in skin moisture after control area deduction (human skin [4]; [8]) [%] | improvement in skin moisture, treated area (human skin [4]; [8]) [%] | percentage of proliferative cells (nuclei) ([1]; 6 days incubation, air exposed models 17.11%) [%] | improvement in skin elasticity, treated area (human skin [3]; crow's feet, 5% aqueous solution) [%] |
| --- | --- | --- | --- | --- | --- | --- | --- | --- | --- | --- | --- | --- | --- | --- | --- | --- | --- | --- | --- |
| N=C(N)NCCC[C@H](NC(=O)C[C@H](N)C(=O)O)C(=O)O [β-L-aspartyl-L-arginine] | 30.98 | 16.4 | 127.23 | 112.36 | 118.16 | 120.61 | 8.08 | 9.26 | 8.85 | about 9.11% | ~8.70 | about 1.873% | 1.56 | 0.82 | about 1.126% | 0.56 | ~0.871 | – | – |
| NCCCC[C@H](NC(=O)C[C@H](N)C(=O)O)C(=O)O [β-L-aspartyl-L-lysine] | 16.33 | 20.02 | – | – | – | – | 11.21 | 6.18 | – | about 6.03% | – | about 16.10% | 15.79 | 1.74 | about 2.05% | – | – | 22.12 | 11.06 |
